Test results published in PubChem BioAssay AID489019 (Sanford-Burnham Center for Chemical Genomics, 2010).
Activity calls are given as the source filed them. The rule behind the calls is not given here.

Test system: HEK-293T NF-kB-Luc cytotoxicity, resazurin fluorescence, 15 h
Experiment: cytotoxicity in HEK-293T NF-kB-Luc cells, dose response, cytotoxicity control for B/T-cell NF-kB inhibitor project, cell-based, uHTS hits (AID 489019)

SMILES: CC(=O)OC[C@]12CCC(C)=C[C@H]1O[C@@H]1[C@H](O)[C@@H](OC(C)=O)[C@@]2(C)[C@]12CO2
- IC50: > 80 µM (inactive)
